From the NIST ThermoML archive (doi:10.1016/j.fluid.2011.01.001)

Legend:
[1] = refractive index (Na D-line) (dimensionless); settings: 101.33 kPa, Liquid, Standard Abbe refractometry
[2] = 101.33 kPa, Liquid, Vibrating tube method
[3] = mn = molality of the nth substance listed, in mol/kg; settings: 101 kPa, Liquid, Vibrating tube method

CCn1cc[n+](C)c1.COS(=O)(=O)[O-] [1-ethyl-3-methylimidazolium methylsulfate]
Settings	mass density, 298.15 K [kg/m3]	mass density, 308.15 K [kg/m3]	mass density, 318.15 K [kg/m3]	mass density, 328.15 K [kg/m3]	refractive index, 298.15 K	refractive index, 308.15 K	refractive index, 318.15 K	refractive index, 328.15 K
[1]	–	–	–	–	1.4822	1.4782	1.4759	1.4704
[2]	1361.2	1333.2	1319.2	1300.3	–	–	–	–

CCn1cc[n+](C)c1.COS(=O)(=O)[O-] [1-ethyl-3-methylimidazolium methylsulfate] + O
mass density [kg/m3], [3]
Settings	298.15 K	308.15 K	318.15 K	328.15 K
m1 = 0.0166	998.28	995.1	991.05	985.78
m1 = 0.0244	998.78	995.59	991.42	986.12
m1 = 0.0302	999.18	995.94	991.68	986.36
m1 = 0.0372	999.58	996.31	992	986.62
m1 = 0.0702	1001.29	997.81	993.46	987.97
m1 = 0.077	1001.59	998.05	993.68	988.23
m1 = 0.0961	1002.25	998.74	994.43	988.9
m1 = 0.1191	1003.09	999.51	995.31	989.75
m1 = 0.1346	1003.69	999.99	995.93	990.36
m1 = 0.1823	1005.3	1002.08	997.93	992.14
m1 = 0.3343	1011.4	1008.04	1003.88	997.71
m1 = 0.4226	1014.99	1011.67	1007.18	1000.86
m1 = 0.5486	1020.29	1017.02	1011.85	1005.32
m1 = 0.573	998.28	1018.1	1012.71	1006.1

CCCCCCn1cc[n+](C)c1.CCOS(=O)(=O)[O-] [1-hexyl-3-methylimidazolium ethyl sulfate]
Settings	mass density, 298.15 K [kg/m3]	mass density, 308.15 K [kg/m3]	mass density, 318.15 K [kg/m3]	mass density, 328.15 K [kg/m3]	refractive index, 298.15 K	refractive index, 308.15 K	refractive index, 318.15 K	refractive index, 328.15 K
[1]	–	–	–	–	1.4677	1.4636	1.4596	1.4566
[2]	1137.54	1130.74	1124.29	1117.81	–	–	–	–

CCCCCCn1cc[n+](C)c1.CCOS(=O)(=O)[O-] [1-hexyl-3-methylimidazolium ethyl sulfate] + O
mass density [kg/m3], [3]
Settings	298.15 K	308.15 K	318.15 K	328.15 K
m1 = 0.0113	997.55	994.52	990.63	985.41
m1 = 0.0347	998.58	995.5	991.48	986.2
m1 = 0.0419	998.9	995.8	991.73	986.44
m1 = 0.0614	999.73	996.6	992.41	987.07
m1 = 0.0677	1000	996.84	992.62	987.28
m1 = 0.1085	1001.65	998.38	994	988.57
m1 = 0.2177	1005.67	1002.07	997.31	991.8
m1 = 0.3501	1010	1005.78	1000.86	995.29
m1 = 0.433	1012.3	1007.9	1002.92	997.21
m1 = 0.5618	1015.56	1010.89	1005.91	1000.07
m1 = 0.7474	1019.59	1014.5	1009.79	1003.7
m1 = 0.8741	1021.74	1016.59	1012.03	1005.94
m1 = 1.17	1025.65	1020.79	1016.28	1010.91
m1 = 1.343	1027.8	1023.36	1018.31	1013.65

CCCCCCn1cc[n+](C)c1.COS(=O)(=O)[O-] [1-hexyl-3-methylimidazolium methyl sulfate]
Settings	mass density, 298.15 K [kg/m3]	mass density, 308.15 K [kg/m3]	mass density, 318.15 K [kg/m3]	mass density, 328.15 K [kg/m3]	refractive index, 298.15 K	refractive index, 308.15 K	refractive index, 318.15 K	refractive index, 328.15 K
[1]	–	–	–	–	1.4733	1.4708	1.4683	1.4654
[2]	1156.93	1150.32	1143.84	1137.38	–	–	–	–

CCCCCCn1cc[n+](C)c1.COS(=O)(=O)[O-] [1-hexyl-3-methylimidazolium methyl sulfate] + O
mass density [kg/m3], [3]
Settings	298.15 K	308.15 K	318.15 K	328.15 K
m1 = 0.0118	997.55	994.47	990.58	985.32
m1 = 0.0314	998.37	995.17	991.17	985.78
m1 = 0.0497	999.1	995.8	991.69	986.21
m1 = 0.076	1000.09	996.65	992.4	986.8
m1 = 0.0937	1000.68	997.19	992.86	987.21
m1 = 0.154	1002.59	998.9	994.35	988.41
m1 = 0.3076	1006.3	1002.6	997.53	990.95
m1 = 0.5023	1010.81	1006.62	1001.55	994.25
m1 = 0.6255	1013.9	1009.13	1003.9	996.3
m1 = 0.7024	1015.42	1010.54	1005.28	997.49
m1 = 0.8838	1020.02	1014	1008.57	1000.18
m1 = 1.071	1024.02	1017.44	1012.23	1002.98
m1 = 1.284	1028.91	1021.24	1015.5	1005.89
m1 = 1.544	1034.22	1026.15	1020.01	1009
